In paper PMC5450539, “Anti-Inflammatory Activity and Structure-Activity Relationships of Brominated Indoles from a Marine Mollusc” (Marine Drugs, 2017):
Where a name gives a salt, the structure may show the parent alone. Read-outs that look alike come from different tables or passages of the source.

What was measured:
PGE2 = test system: PGE2; set-up: method as in Matheus et al. [37]; conditions: ref Matheus et al. [37]; cited from earlier work
NO production = test system: NO production; set-up: method as in Matheus et al. [37]; conditions: ref Matheus et al. [37]; cited from earlier work
[1] = test system: 3T3 ccl-92 mouse fibroblast; experiment: Crystal violet cytotoxicity assay, 3T3 ccl-92; type: cell-based; conditions: 24 h incubation; max test concentration 50 µg/mL; > = <50% reduction in viability at max
Experimental: (§1) All extract/compounds were dissolved in DMSO and tested at 5 different concentrations of 50, 10, 2, 0.4, and 0.08 μg/mL for all anti-inflammatory assays unless otherwise noted. The final concentration of DMSO was 0.35% v/v for extracts and compounds. All samples were tested in triplicate at each concentration and each assay was independently repeated at least 3 times. The concentrations used for the cytotoxicity assays were 50, 25, 12.5, 6.25. and 3.125 μg/mL.
(§2) To check for cytotoxicity of the extracts and compounds against RAW264.7 mouse macrophage and 3T3 ccl-92 mouse fibroblast cell lines, the crystal violet cytotoxicity test was used according to the published protocol. In brief, RAW264.7 cells were seeded with a density of 2 × 10^4 cells/well in a 96-well plate and then incubated for 18–24 h. The following day the compounds/extracts were added and then incubated for 24 h before the media was aspirated and the cells washed twice in a gentle stream of water. After removing the water, 50 µL of 0.5% crystal violet staining solution were added and the cells were incubated for 20 min at room temperature. The plate was then washed 4 times with water and air dried for 2 h. Finally, 200 μL of methanol was added to each well and incubated for 20 min at room temperature on a rocker. This was followed by measuring the optical density at 570 nm with a plate reader Anthos Zenyth 200rt (Anthos Labtec Instruments, Heerhugowaard, The Netherlands). Chlorambucil was used as a positive control.

[2] = Crystal violet cytotoxicity assay, RAW264.7; conditions: mouse
Experimental: as §1, §2

[3] = test system: RAW264.7 mouse macrophage; experiment: Crystal violet cytotoxicity assay, RAW264.7; conditions: 24 h incubation; max test concentration 50 µg/mL; > = <50% reduction in viability at max, ~ = close to 50%
Experimental: as §1, §2

[4] = test system: nitric oxide (NO) production; experiment: NO inhibition assay (Greiss) in LPS-stimulated RAW264.7 macrophages; type: cell-based, mouse; conditions: for IC50: read-out: NO IC50; for NO inhibitory activity (in words): LPS-stimulated RAW264.7, up to 50 µg/mL; for lowest concentration with significant inhibition of NO production: significant vs DMSO control
Experimental: RAW264.7 macrophages were incubated 1 h with extracts/compounds prior to the addition of LPS. […] Then, 20 h after the addition of LPS, the supernatant was collected. […] The plates were incubated for 15–20 min in the dark, then read at 550 nm wavelength on an Anthos Zenyth 200rt (Anthos Labtec Instruments). Sodium nitrite was used to prepare a standard curve to quantify the nitrite from the absorbance readings in this assay. All data were processed in Microsoft Office Excel 2013 (MS) first to obtain descriptive statistics. One-way Analysis of Variance (ANOVA) followed by Dunnett’s multiple comparisons test was performed using GraphPad Prism version 6.00 for Windows (GraphPad Software, La Jolla, CA, USA, www.graphpad.com), with p < 0.05 considered significant.

TNFα production = experiment: TNF-alpha inhibition assay (ELISA) in LPS-stimulated RAW264.7 macrophages; type: cell-based, mouse; conditions: for IC50: max test concentration 50 µg/mL, read-out: TNFα IC50
Experimental: The amount of TNFα was quantified in cell culture media using murine TNFα ELISA kits (BD bioscience). In brief, the RAW264.7 mouse macrophages (6 × 10^5 cells/mL) were stimulated with LPS (100 ng/mL) 1 h after treatment with several concentrations of extracts (0.08–50 μg/mL). After 18 h, the supernatant was collected and TNFα production was measured by reading the absorbance at 450 nm wavelength on an Anthos Zenyth 200rt microplate reader (Anthos Labtech Instruments). Dexamethasone at a concentration of 2.5 μM was used as a positive control, with a negative control of 0.35% DMSO.
(§3) All data were processed in Microsoft Office Excel 2013 (MS) first to obtain descriptive statistics. One-way Analysis of Variance (ANOVA) followed by Dunnett’s multiple comparisons test was performed using GraphPad Prism version 6.00 for Windows (GraphPad Software, La Jolla, CA, USA, www.graphpad.com), with p < 0.05 considered significant. The inhibitory concentration responsible for a 50% reduction in cell viability or production of inflammatory markers (IC50) was calculated using the regression analysis, Probit in SPSS v21.

NFκB translocation = experiment: Assessment of NFκB translocation in LPS-stimulated RAW264.7; type: cell-based; conditions: Mus musculus, RAW264.7, 40 µg/mL, LPS-stimulated RAW264.7, relative to DMSO + LPS
Experimental: This assay was performed according to the published protocol in Olivera et al.. RAW264.7 mouse macrophages were seeded at 400,000 cells/well in 800 μL in 4-well chambered slides and incubated overnight. The cells were then incubated with the test samples (40 μg/mL HBG extract, 6-bromoisatin, or 6-bromoindole) for 1 h prior to stimulation with LPS (700 ng/mL) for 30 min. After stimulation, the cells were washed with PBS and fixed with 3.7% paraformaldehyde for 15 min. […] The cells were washed with PBS and incubated with rabbit anti-p65 NFκB antibody (1:500) and goat anti-mouse IκB (1:500) overnight at 4 °C. The following day, the cells were washed again three times with PBS and incubated for 1 h with goat-anti-rabbit IgG conjugated with Alexa Fluor 594 (1:1000) and donkey anti-mouse IgG conjugated with Alexa fluor 488 (1:1000) at room temperature. Finally, the cells were washed with PBS then mounted with Prolong mounting media containing DAPI before visualising using the Olympus Flouview FVi10 confocal microscope (Olympus, Tokyo, Japan). Using ImageJ (v1.50i, National Institutes of Health, Bethesda, MD, USA), an outline was drawn around each nucleus by adjusting the colour threshold of DAPI. Mean fluorescence inside the nucleus was measured, along with several adjacent background readings. The total corrected cellular fluorescence (TCCF) was calculated by applying the equation TCCF = integrated density − (area of selected cell × mean fluorescence of background readings). This TCCF was then used to calculate the %inhibition of the NFκB translocation against the positive control where the cells were treated with LPS in the presence of the Vehicle (0.35% DMSO v/v) in Microsoft Office Excel 2013 (Redmond, WA, USA).

PGE2 production = experiment: PGE2 inhibition assay (ELISA) in calcium ionophore-stimulated 3T3 ccl-92 fibroblasts; type: cell-based, mouse; conditions: for IC50: calcium ionophore-stimulated 3T3 ccl-92, max test concentration 50 µg/mL
Experimental: The levels of PGE2 were measured in cell media using a Cayman Prostaglandin E2 Express ELISA Kit (Cayman Chemical, Ann Arbor, MI, USA) according to the manufacturer’s instructions. In brief, the 3T3 ccl-92 fibroblasts (1 × 10^5 cells/mL) were grown overnight in a 96-well plate and then treated with extracts/compounds 3 h before being stimulated with Calcium ionophore (50 μM). After 20 min, supernatants were collected and PGE2 production was quantified by measuring the absorbance at 405 nm wavelength with an Anthos Zenyth 200rt (Anthos Labtech Instruments). Indomethacin at a concentration of 100 μM was used as a positive control and ~0.5% DMSO as a negative control.
as §3

[5] = Mus musculus, RAW264.7, LPS-stimulated RAW264.7, max test concentration 50 µg/mL
[6] = Mus musculus, RAW264.7, LPS-stimulated RAW264.7

O=C1Nc2cccc(Br)c2C1=O [4-bromoisatin]
inhibition of PGE2 (in words) (PGE2): did not inhibit | inhibition of NO production (in words) (NO production): did not inhibit

O=C1Nc2ccc(Br)cc2C1=O [5-bromoisatin]
Cytotoxicity 3T3 ccl-92 (test concentration which causes toxicity) [1]: NA (not active at maximum test concentration 50 µg/mL) | viability at 24 h, 50 µg/mL [2]: 55% | Cytotoxicity RAW264.7 (test concentration which causes toxicity) [3]: ~221.21 µM | IC50 ([4]; LPS-stimulated RAW264.7, max test concentration 50 µg/mL, listed as 5-bromoisatin (9)): 152 µM | IC50 [4, 5]: 152 µM | IC50 [4, 6]: 34.3 mg/L | IC50 (TNFα production; LPS-stimulated RAW264.7, listed as 5-bromoisatin (9)): 38 µM | IC50 (TNFα production; [6]): 38.1 µM | inhibition at 50 µg/mL (TNFα production; Mus musculus, RAW264.7, 50 μg/mL): 100%

O=C1C(=C2Nc3cc(Br)ccc3C2=O)Nc2cc(Br)ccc21 [6,6 dibromoindigo]
Cytotoxicity 3T3 ccl-92 (test concentration which causes toxicity) [1]: NA (not active at maximum test concentration 50 µg/mL) | NO inhibitory activity (in words) [4]: minimal inhibitory activity | IC50 [4, 5]: > 50 mg/L

O=C1Nc2cc(Br)ccc2C1=C1Nc2ccccc2C1=O [6-bromoindirubin]
viability at 24 h, 50 µg/mL [2]: 56.2% | NO inhibitory activity (in words) [4]: minimal inhibitory activity | IC50 [4, 5]: > 50 mg/L

Brc1ccc2cc[nH]c2c1 [6-bromoindole]
inhibition at 40 µg/mL (NFκB translocation): 60.7% | Cytotoxicity 3T3 ccl-92 (test concentration which causes toxicity) [1]: NA (not active at maximum test concentration 50 µg/mL) | viability at 24 h, 50 µg/mL [2]: 66.4% | Cytotoxicity RAW264.7 (test concentration which causes toxicity) [3]: >255.04 µM | IC50 [4, 5]: 187 µM | IC50 (PGE2 production; Mus musculus, Fibroblast): 223 µM | IC50 (PGE2 production; listed as 6-bromoindole (11)): 223 µM | lowest concentration with significant PGE2 inhibition (PGE2 production; p < 0.05 vs solvent control): 0.08 µg/mL | IC50 (TNFα production; LPS-stimulated RAW264.7, listed as 6-bromoindole (11)): 150 µM | IC50 (TNFα production; [6]): 150 µM

O=C1Nc2cc(Br)ccc2C1=O [6-bromoisatin]
inhibition at 40 µg/mL (NFκB translocation): 63.7% | Cytotoxicity 3T3 ccl-92 (test concentration which causes toxicity) [1]: NA (not active at maximum test concentration 50 µg/mL) | IC50 [4, 5]: 120 µM | IC50 [4, 6]: 27.1 mg/L | lowest concentration with significant inhibition of NO production [4]: 0.4 µg/mL | IC50 (PGE2 production; Mus musculus, Fibroblast): > 221 µM | inhibition at 0.08 µg/mL (PGE2 production; Mus musculus, Fibroblast, 0.08 µg/mL): 10% | inhibition at 50 µg/mL (PGE2 production; Mus musculus, Fibroblast, 50 μg/mL): 40% | IC50 (TNFα production; LPS-stimulated RAW264.7, listed as 6-bromoisatin (4)): 123 µM | IC50 (TNFα production; [6]): 123 µM

O=C1Nc2ccc(I)cc2C1=O [Compound 5-iodoisatin, 5-iodoisatin]
inhibition of PGE2 (in words) (PGE2): did not inhibit | inhibition of NO production (in words) (NO production): did not inhibit

CSc1[nH]c2cc(Br)ccc2c1OS(=O)(=O)O [Tyrindoxyl sulfate, tyrindoxyl sulfate]
Cytotoxicity 3T3 ccl-92 (test concentration which causes toxicity) [1]: NA (not active at maximum test concentration 50 µg/mL) | IC50 [4, 5]: > 50 mg/L

C[C@@H]1C[C@H]2[C@@H]3CCC4=CC(=O)C=C[C@]4(C)[C@@]3(F)[C@@H](O)C[C@]2(C)[C@@]1(O)C(=O)CO [dexamethasone, reference compound]
inhibition at 2.5 µM ([4]; Mus musculus, RAW264.7, working concentration 2.5 µM, positive control): 56%

O=C1Nc2ccccc2/C1=C1/Nc2ccccc2C1=O [indirubin]
Cytotoxicity 3T3 ccl-92 (test concentration which causes toxicity) [1]: NA (not active at maximum test concentration 50 µg/mL) | NO inhibitory activity (in words) [4]: minimal inhibitory activity | IC50 [4, 5]: > 50 mg/L

CSC1=Nc2cc(Br)ccc2C1=O [tyrindoleninone]
Cytotoxicity 3T3 ccl-92 (test concentration which causes toxicity) [1]: NA (not active at maximum test concentration 50 µg/mL) | viability at 24 h, 50 µg/mL [2]: 84.1% | IC50 [4, 5]: 103 µM | IC50 [4, 6]: 26.4 mg/L | lowest concentration with significant inhibition of NO production [4]: 0.08 µg/mL | IC50 (TNFα production; LPS-stimulated RAW264.7, listed as Tyrindoleninone (3)): 157 µM | IC50 (TNFα production; [6]): 157 µM

CSC1(C2(SC)Nc3cc(Br)ccc3C2=O)Nc2cc(Br)ccc2C1=O (centres unmarked) [tyriverdin]
Cytotoxicity 3T3 ccl-92 (test concentration which causes toxicity) [1]: NA (not active at maximum test concentration 50 µg/mL) | reduction of NO production ([4]; 50 µg/mL (maximum test concentration), relative to DMSO control): less than 50% | IC50 [4, 5]: > 97.2 µM | lowest concentration with significant inhibition of NO production [4]: 10 µg/mL
